Reference: publication PMC9820118, “Betulin Acid Ester Derivatives Inhibit Cancer Cell Growth by Inducing Apoptosis through Caspase Cascade Activation: A Comprehensive In Vitro and In Silico Study” (International Journal of Molecular Sciences, 2022)
Read-outs that look alike come from different tables or passages of the source.

Assays:
MV4-11 cells = experiment: Antiproliferative activity, MTT assay, MV4-11 leukemia cells; assay type: cell-based, human; conditions: for IC50: 72 h incubation, MTT, read-out: Growth inhibition IC50, leukemia cell line MV4-11; for Calculated Selectivity Index SI, MV4-11: IC50 BALB/3T3 / IC50 MV4-11
Experimental: (§1) The in vitro antiproliferative activity tests have been conducted against four human cancer cell lines: MV4-11 biphenotypic B myelomonocytic leukemia cell line, A549 lung carcinoma cell line, MCF-7 breast carcinoma cell line, PC-3 prostate carcinoma cell line and one normal BALB/3T3 mouse fibroblast cell line. […] All tested compounds were dissolved in DMSO and diluted with a culture medium to a desired concentration. […] Cell viability, after 72 h incubation of the cells with tested compounds, was determined using tetrazolinum dye MTT (for MV4-11 cells) or sulforhodamine B (SRB test, for MCF-7, A549, PC-3, BALB/3T3 cells) colorimetric assays.
(§2) Human biphenotypic B myelomonocytic leukemia MV4-11, murine normal fibroblast BALB/3T3 cells were obtained from the American Type Culture Collection (USA); and human lung carcinoma A549, human breast cancer MCF-7 and human prostate adenocarcinoma PC-3 were obtained from the European Collection of Authenticated Cell Cultures (UK).
(§3) MV4-11 and PC-3 cells were cultured in RPMI 1640 medium (HIIET PAS, Poland) with 1.0 mM sodium pyruvate (only MV4-11) and 10% fetal bovine serum (FBS) (all from Merck, Darmstadt, Germany). A549 cells were cultured in RPMI 1640 + Opti-MEM (1:1) ((HIIET PAS, Poland and Gibco, UK) supplemented with 5% fetal bovine serum (Merck, Darmstadt, Germany). The MCF-7 cells were cultured in Eagle medium (HIIET PAS, Poland) supplemented with 8 mg/mL of insulin and 1% of MEM NON-Essential amino acid (all Merck, Darmstadt, Germany). Normal fibroblasts BALB/3T3 cells were cultured in DMEM medium (Gibco, UK) supplemented with 10% fetal bovine serum and 1.0 mM sodium pyruvate (all from Merck, Darmstadt, Germany). All culture media were supplemented with 2 mM L-glutamine (Merck, Darmstadt, Germany), 100 units/ml penicillin, (Polfa Tarchomin S.A., Poland) and 100 µg/mL streptomycin (Merck, Darmstadt, Germany). All cell lines were grown at 37 °C in a 5% CO2 humidified atmosphere.
(§4) The solutions of the tested compounds were prepared by dissolving the substances in DMSO to the desired concentration (25 mM). Then, the tested compounds were diluted in a culture medium to reach the final concentrations. Before addition of the tested compounds (24 h prior), the cells were plated in 96-well plates (Sarstedt, Germany) at a density of 1 × 10^4, 0.75 × 10^4 (MCF-7) or 0.5 × 10^4 (A549) cells per well. The assay was performed after 72 h of exposure to 100, 10, 1 and 0.1 µM concentration of the tested agents. […] The SRB method determined the amount of cellular proteins. The concentration of the colorimetric probe (formazan in MTT or sulforhodamine B in SRB method) was determined by an optical density measurement using a standard microplate reader for 96-well plates. After optical density measurement, using the data of the mean absorbances of control cells (AbCC), the absorbances of cells treated by the tested compound (AbTr) (for each concentration separately) and the absorbance of the cultured medium (AbCM) the % of cell proliferation inhibition was calculated according to the following formula: % inh. cells proliferation=100−AbTr−AbCM/AbCC−AbCM×100
(§5) From the obtained proliferation inhibition values, effect-concentration curves of the compound used were plotted. […] IC50 values were calculated for each experiment separately using the Prolab-3 system based on Cheburator 0.4 software [36] and mean values (±SD) are presented. Each compound in each concentration was tested in triplicate in a single experiment, which was repeated 3–5 times.

[1] = Experimental lipophilicity by RP-TLC; conditions: for RM0: RP-TLC, RP-18 F254S, acetone / Tris buffer pH 7.4, extrapolated to zero acetone
Experimental: The retention mechanism in the RP-TLC method is based on the partition of substances between two phases. Silica gel (RP-18 F254S plates) was used as the hydrophobic stationary phase. In contrast, the hydrophilic mobile phase was a binary mixture of acetone and an aqueous solution of TRIS buffer.
Chromatographic analysis by RP-TLC was performed an aluminum backed silica gel RP-18 F254S
phenylanthracene] and tested betulin derivatives were dissolved in chloroform to obtain a
concentration of 2 mg/mL. The prepared solutions were spotted on the plates in the amount of 2 μL.
the next step, the chromatographic chambers were saturated 30 min of the appropriate mobile phases
consisting of a mixture of acetone (Merck, Darmstadt, Germany) and aqueous solution of buffer Tris
[(tris-hydroxymethyl)aminomethane] (Fluka, Loughborough, 0.2 M, pH 7.4). The amount of acetone in
the mobile phase were in the range 60-90% in 5% increments. The chromatograms were developed for
each compound in triplicate at room temperature. The spots of betulin derivatives were visualized by
spraying the plates with the mixture of ethanol and concentrated sulfuric acid (10:1, v/v) and heating
The retardation factor (Rf) were calculated according to the equation below:
(a-the distance from the start line to the spot center, b-the distance from the start line to the mobile
The RM values were calculated by the Bate-Smith and Westall equation:
The RM0 parameters were obtained by extrapolating on the acetone content to zero, according to the
Soczewiński-Wachtmeister equation:
(C-the percentage concentration of acetone in the mobile phase, b-the slope of the regression plot).
The calibration curve was determined using eight reference compounds.
compounds were determined under the same conditions as for betulin derivatives (Table S1).

PC-3 cell line = experiment: Antiproliferative activity, SRB assay, PC-3 prostate carcinoma cells; conditions: for IC50: Homo sapiens, PC-3, 72 h, read-out: Cytotoxicity IC50 against PC-3 cell line; for Calculated Selectivity Index SI, PC-3: IC50 BALB/3T3 / IC50 PC-3
Experimental: as §1, §2, §3, §4, §5

in vitro = conditions: mouse
Experimental: as §1, §2, §3, §4, §5

A549 cell line = experiment: Antiproliferative activity, SRB assay, A549 lung carcinoma cells; conditions: for IC50: Homo sapiens, A549, 72 h, read-out: Cytotoxicity IC50 against A549 cell line; for Calculated Selectivity Index SI, A549: IC50 BALB/3T3 / IC50 A549
MCF-7 cell line = experiment: Antiproliferative activity, SRB assay, MCF-7 breast carcinoma cells; conditions: for IC50: Homo sapiens, MCF7, 72 h, read-out: Cytotoxicity IC50 against MCF-7 cell line; for Calculated Selectivity Index SI, MCF-7: IC50 BALB/3T3 / IC50 MCF-7
Experimental: as §1, §2, §3, §4, §5

Q: Which IC50 (MV4-11 cells; Homo sapiens, MV4-11, 72 h) does the source give for `C#CCNC(=O)C(C)=CC(=O)OCC12CCC(C(=C)C)C1C1CCC3C4(C)CCC(O)C(C)(C)C4CCC3(C)C1(C)CC2` (centres unmarked) [3a] here?
A: Its IC50 is 12.5 µM.

Q: What about the RM0 [1] of the same compound?
A: The RM0 was 5.326.

Q: What about the IC50 (PC-3 cell line) of the same compound?
A: Its IC50 is 15.3 µM.

Q: Which IC50 (MV4-11 cells) does the source give for `C=C(C)[C@@H]1CC[C@]2(COC(=O)CCCC(=O)N3CCSCC3)CC[C@]3(C)C(CCC4[C@@]5(C)CC[C@H](O)C(C)(C)C5CC[C@]43C)C12` (some centres unmarked) [4d] here?
A: The IC50 was 7.04 µM.

Q: And the IC50 (MV4-11 cells; Homo sapiens, MV4-11, 72 h)?
A: Its IC50 is under 10 µM.

Q: What about the “Calculated Selectivity Index SI, MV4-11” value (MV4-11 cells) of the same compound?
A: The value was 7.1.

Q: And the IC50 at 72 h (in vitro)?
A: The IC50 at 72 h was over 50 µM.

Q: What about the RM0 [1] of the same compound?
A: Its RM0 is 5.008.

Q: What about the IC50 (A549 cell line) of the same compound?
A: Its IC50 is 40.2 µM.

Q: What about the “Calculated Selectivity Index SI, A549” value (A549 cell line) of the same compound?
A: The value was 1.2.

Q: What about the IC50 (MCF-7 cell line) of the same compound?
A: The IC50 was 50 µM.

Q: What about the “Calculated Selectivity Index SI, MCF-7” value (MCF-7 cell line) of the same compound?
A: Its value is 1.0.

Q: What about the IC50 (PC-3 cell line) of the same compound?
A: The IC50 was 50 µM.

Q: And the “Calculated Selectivity Index SI, PC-3” value (PC-3 cell line)?
A: The value was 1.0.

Q: With `C=C(C)[C@@H]1CC[C@]2(COC(=O)c3cccc(C(=O)N4CCOCC4)c3)CC[C@]3(C)C(CCC4[C@@]5(C)CC[C@H](O)C(C)(C)C5CC[C@]43C)C12` (some centres unmarked) [7b] as the compound, how does the IC50 (MV4-11 cells; Homo sapiens, MV4-11, 72 h) read?
A: The IC50 was 47.6 µM.

Q: And the RM0 [1]?
A: Its RM0 is 5.153.

Q: With `C#CC1(NC(=O)CCCCCCCCCC(=O)OC[C@]23CC[C@@H](C(=C)C)C2C2CCC4[C@@]5(C)CC[C@H](O)C(C)(C)C5CC[C@@]4(C)[C@]2(C)CC3)CCCCC1` (some centres unmarked) [5e] as the compound, how does the IC50 (MV4-11 cells; Homo sapiens, MV4-11, 72 h) read?
A: The IC50 was over 100 µM.

Q: And the RM0 [1]?
A: Its RM0 is 6.093.

Q: With `C=C(C)[C@@H]1CC[C@]2(COC(=O)CCCC(=O)N3CCOCC3)CC[C@]3(C)C(CCC4[C@@]5(C)CC[C@H](O)C(C)(C)C5CC[C@]43C)C12` (some centres unmarked) [4b] as the compound, how does the IC50 (MV4-11 cells) read?
A: The IC50 was 6.27 µM.

Q: And the IC50 (MV4-11 cells; Homo sapiens, MV4-11, 72 h)?
A: The IC50 was under 10 µM.

Q: And the “Calculated Selectivity Index SI, MV4-11” value (MV4-11 cells)?
A: Its value is 5.9.

Q: What about the IC50 at 72 h (in vitro) of the same compound?
A: The IC50 at 72 h was 36.8 µM.

Q: What about the RM0 [1] of the same compound?
A: Its RM0 is 4.961.

Q: What about the IC50 (A549 cell line) of the same compound?
A: The IC50 was 8.47 µM.

Q: What about the “Calculated Selectivity Index SI, A549” value (A549 cell line) of the same compound?
A: Its value is 4.3.

Q: What about the IC50 (MCF-7 cell line) of the same compound?
A: Its IC50 is 21.6 µM.

Q: And the “Calculated Selectivity Index SI, MCF-7” value (MCF-7 cell line)?
A: The value was 1.7.

Q: What about the IC50 (PC-3 cell line) of the same compound?
A: The IC50 was 22.7 µM.

Q: And the “Calculated Selectivity Index SI, PC-3” value (PC-3 cell line)?
A: The value was 1.6.

Q: Which “Calculated Selectivity Index SI, MV4-11” value (MV4-11 cells) does the source give for `C#CCNC(=O)CCCC(=O)OC[C@]12CC[C@@H](C(=C)C)C1C1CCC3[C@@]4(C)CC[C@H](O)C(C)(C)C4CC[C@@]3(C)[C@]1(C)CC2` (some centres unmarked) [4a] here?
A: The value was 1.2.

Q: And the IC50 at 72 h (in vitro)?
A: The IC50 at 72 h was 5.02 µM.

Q: What about the RM0 [1] of the same compound?
A: The RM0 was 5.158.

Q: And the IC50 (A549 cell line)?
A: Its IC50 is 29.1 µM.

Q: And the “Calculated Selectivity Index SI, A549” value (A549 cell line)?
A: The value was 0.2.

Q: What about the IC50 (MCF-7 cell line) of the same compound?
A: The IC50 was 50 µM.

Q: What about the “Calculated Selectivity Index SI, MCF-7” value (MCF-7 cell line) of the same compound?
A: The value was 0.1.

Q: And the “Calculated Selectivity Index SI, PC-3” value (PC-3 cell line)?
A: Its value is 0.3.

Q: For `C=C(C)[C@@H]1CC[C@]2(COC(=O)c3ccccc3C(=O)N3CCSCC3)CC[C@]3(C)C(CCC4[C@@]5(C)CC[C@H](O)C(C)(C)C5CC[C@]43C)C12` (some centres unmarked) [6d], which IC50 (MV4-11 cells; Homo sapiens, MV4-11, 72 h) is on record?
A: The IC50 was 14.3 µM.

Q: And the RM0 [1]?
A: The RM0 was 6.255.

Q: Which results are given for `C=C(C)C1CCC2(COC(=O)C=C(C)C(=O)O)CCC3(C)C(CCC4C5(C)CCC(O)C(C)(C)C5CCC43C)C12` (centres unmarked) [compound 3]?
A: IC50 (MV4-11 cells; Homo sapiens, MV4-11, 72 h): 19.9 µM; Calculated Selectivity Index SI, MV4-11 (MV4-11 cells): 1.9; IC50 at 72 h (in vitro): 37.2 µM; RM0 [1]: 5.410; IC50 (A549 cell line): 28.7 µM; Calculated Selectivity Index SI, A549 (A549 cell line): 1.3; IC50 (MCF-7 cell line): 38.2 µM; Calculated Selectivity Index SI, MCF-7 (MCF-7 cell line): 1.0; IC50 (PC-3 cell line): 34.4 µM; Calculated Selectivity Index SI, PC-3 (PC-3 cell line): 1.1

Q: With `C#CCNC(=O)c1cccc(C(=O)OC[C@]23CC[C@@H](C(=C)C)C2C2CCC4[C@@]5(C)CC[C@H](O)C(C)(C)C5CC[C@@]4(C)[C@]2(C)CC3)c1` (some centres unmarked) [7a] as the compound, how does the IC50 (MV4-11 cells; Homo sapiens, MV4-11, 72 h) read?
A: The IC50 was 79.7 µM.

Q: And the RM0 [1]?
A: Its RM0 is 5.839.

Q: Which RM0 [1] does the source give for `Clc1ccc(C(c2ccc(Cl)cc2)C(Cl)(Cl)Cl)cc1` [DDT, dichlorodiphenyltrichloroethane, reference compound] here?
A: The RM0 was 4.55.

Q: For `CC(=O)c1ccc(Br)cc1` [4-bromoacetophenone, reference compound], which RM0 [1] is on record?
A: Its RM0 is 1.88.

Q: For `C#CC1(NC(=O)C(C)=CC(=O)OCC23CCC(C(=C)C)C2C2CCC4C5(C)CCC(O)C(C)(C)C5CCC4(C)C2(C)CC3)CCCCC1` (centres unmarked) [3e], which IC50 (MV4-11 cells; Homo sapiens, MV4-11, 72 h) is on record?
A: The IC50 was 22.2 µM.

Q: And the RM0 [1]?
A: The RM0 was 6.098.

Q: Which results are given for `C#CCNC(=O)CCCCCCCCCC(=O)OC[C@]12CC[C@@H](C(=C)C)C1C1CCC3[C@@]4(C)CC[C@H](O)C(C)(C)C4CC[C@@]3(C)[C@]1(C)CC2` (some centres unmarked) [5a]?
A: IC50 (MV4-11 cells; Homo sapiens, MV4-11, 72 h): 21 µM; RM0 [1]: 5.998

Q: What does the source list for `C=C(C)C1CCC2(COC(=O)C=CC(=O)O)CCC3(C)C(CCC4C5(C)CCC(O)C(C)(C)C5CCC43C)C12` (centres unmarked) [compound 8]?
A: IC50 (MV4-11 cells; Homo sapiens, MV4-11, 72 h): 15.2 µM; RM0 [1]: 5.129; log PTLC ([1]; from RM0 by calibration curve with eight reference compounds): 7.150

Q: For `C=C(C)[C@@H]1CC[C@]2(COC(=O)CCCC(=O)O)CC[C@]3(C)C(CCC4[C@@]5(C)CC[C@H](O)C(C)(C)C5CC[C@]43C)C12` (some centres unmarked) [compound 4], which IC50 (MV4-11 cells; Homo sapiens, MV4-11, 72 h) is on record?
A: The IC50 was 24 µM.

Q: And the “Calculated Selectivity Index SI, MV4-11” value (MV4-11 cells)?
A: Its value is 1.6.

Q: And the IC50 at 72 h (in vitro)?
A: Its IC50 at 72 h is 37.9 µM.

Q: What about the RM0 [1] of the same compound?
A: The RM0 was 5.250.

Q: And the IC50 (A549 cell line)?
A: The IC50 was 32.5 µM.

Q: And the “Calculated Selectivity Index SI, A549” value (A549 cell line)?
A: The value was 1.2.

Q: And the IC50 (MCF-7 cell line)?
A: The IC50 was 43.9 µM.

Q: What about the “Calculated Selectivity Index SI, MCF-7” value (MCF-7 cell line) of the same compound?
A: Its value is 0.9.

Q: What about the IC50 (PC-3 cell line) of the same compound?
A: The IC50 was 36.2 µM.

Q: What about the “Calculated Selectivity Index SI, PC-3” value (PC-3 cell line) of the same compound?
A: Its value is 1.0.

Q: For `C#CC1(NC(=O)c2ccccc2C(=O)OC[C@]23CC[C@@H](C(=C)C)C2C2CCC4[C@@]5(C)CC[C@H](O)C(C)(C)C5CC[C@@]4(C)[C@]2(C)CC3)CCCCC1` (some centres unmarked) [6e], which IC50 (MV4-11 cells; Homo sapiens, MV4-11, 72 h) is on record?
A: Its IC50 is 54.6 µM.

Q: What about the RM0 [1] of the same compound?
A: The RM0 was 6.412.

Q: For `C[C@]12C=CC(=O)C=C1CC[C@@H]1[C@@H]2C(=O)C[C@@]2(C)[C@H]1CC[C@]2(O)C(=O)CO` [prednisone, reference compound], which RM0 [1] is on record?
A: Its RM0 is 0.80.

Q: For `CC(=O)Nc1ccccc1` [acetanilide, reference compound], which RM0 [1] is on record?
A: Its RM0 is 0.56.
